Measurements published in PubChem BioAssay (NCI).
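These data come from cells grown in 96-well plates and exposed to compound for 48 hours at five concentrations. Abbreviation: GI50, concentration required for 50% inhibition of growth. TGI: total growth inhibition.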

What was measured:
Assay in all cases: NCI-60 cell line screen, 48 h
SN12C renal = tested on: SN12C renal
OVCAR-8 ovarian = tested on: OVCAR-8 ovarian
UO-31 renal = tested on: UO-31 renal
IGROV1 ovarian = tested on: IGROV1 ovarian
T-47D breast = tested on: T-47D breast
MCF7 breast = tested on: MCF7 breast
CAKI-1 renal = tested on: CAKI-1 renal
PC-3 prostate = tested on: PC-3 prostate
SK-MEL-5 melanoma = tested on: SK-MEL-5 melanoma
HCC-2998 colon = tested on: HCC-2998 colon
NCI-H23 lung = tested on: NCI-H23 lung
EKVX NSCLC = tested on: EKVX NSCLC
U251 CNS = tested on: U251 CNS
SF-539 CNS = tested on: SF-539 CNS
A549 NSCLC = tested on: A549 NSCLC
TK-10 renal = tested on: TK-10 renal
OVCAR-3 ovarian = tested on: OVCAR-3 ovarian
KM12 colon = tested on: KM12 colon
OVCAR-4 ovarian = tested on: OVCAR-4 ovarian
SNB-19 CNS = tested on: SNB-19 CNS
SK-MEL-2 melanoma = tested on: SK-MEL-2 melanoma
HCT-15 colon = tested on: HCT-15 colon
OVCAR-5 ovarian = tested on: OVCAR-5 ovarian
CCRF-CEM leukemia = tested on: CCRF-CEM leukemia
ACHN renal = tested on: ACHN renal
HT29 colon = tested on: HT29 colon
HOP-62 NSCLC = tested on: HOP-62 NSCLC
COLO 205 colon = tested on: COLO 205 colon
HL-60(TB) leukemia = tested on: HL-60(TB) leukemia
BT-549 breast = tested on: BT-549 breast
SR leukemia = tested on: SR leukemia
786-0 renal = tested on: 786-0 renal
HS 578T breast = tested on: HS 578T breast
NCI/ADR-RES ovarian = tested on: NCI/ADR-RES ovarian
RPMI-8226 leukemia = tested on: RPMI-8226 leukemia
SNB-75 CNS = tested on: SNB-75 CNS
SW-620 colon = tested on: SW-620 colon
SK-MEL-28 melanoma = tested on: SK-MEL-28 melanoma
A498 renal = tested on: A498 renal
UACC-62 melanoma = tested on: UACC-62 melanoma
M14 melanoma = tested on: M14 melanoma
SK-OV-3 ovarian = tested on: SK-OV-3 ovarian
MDA-MB-231 breast = tested on: MDA-MB-231 breast
UACC-257 melanoma = tested on: UACC-257 melanoma
RXF 393 renal = tested on: RXF 393 renal
DU-145 prostate = tested on: DU-145 prostate
MOLT-4 leukemia = tested on: MOLT-4 leukemia
MDA-MB-468 breast = tested on: MDA-MB-468 breast
NCI-H226 lung = tested on: NCI-H226 lung
HOP-92 NSCLC = tested on: HOP-92 NSCLC
SF-295 CNS = tested on: SF-295 CNS
MDA-MB-435 = tested on: MDA-MB-435
MALME-3M melanoma = tested on: MALME-3M melanoma
HCT-116 colon = tested on: HCT-116 colon
LOX IMVI melanoma = tested on: LOX IMVI melanoma
NCI-H460 lung = tested on: NCI-H460 lung
K-562 leukemia = tested on: K-562 leukemia
NCI-H522 lung = tested on: NCI-H522 lung
SF-268 CNS = tested on: SF-268 CNS

SMILES: CCOC(=O)C(Cc1ccccc1)N1C(=O)/C(=C/N2N=C(c3ccc(OC)cc3)CC2c2ccc3ccccc3c2)SC1=S (stereo not drawn)
- GI50 (SN12C renal): 3.34 µM
- TGI (SN12C renal): 13.2 µM
- GI50 (OVCAR-8 ovarian): 3.57 µM
- TGI (OVCAR-8 ovarian): 15.3 µM
- GI50 (UO-31 renal): 4.86 µM
- TGI (UO-31 renal): 18.5 µM
- GI50 (IGROV1 ovarian): 4.09 µM
- TGI (IGROV1 ovarian): 15.6 µM
- GI50 (T-47D breast): 3.06 µM
- TGI (T-47D breast): 34.1 µM
- GI50 (MCF7 breast): 2.35 µM
- TGI (MCF7 breast): 7.63 µM
- GI50 (CAKI-1 renal): 3.76 µM
- TGI (CAKI-1 renal): 21.7 µM
- GI50 (PC-3 prostate): 3.78 µM
- TGI (PC-3 prostate): 40.9 µM
- GI50 (SK-MEL-5 melanoma): 2.24 µM
- TGI (SK-MEL-5 melanoma): 5.51 µM
- GI50 (HCC-2998 colon): 3.05 µM
- TGI (HCC-2998 colon): 10.2 µM
- GI50 (NCI-H23 lung): 3.47 µM
- TGI (NCI-H23 lung): 14.5 µM
- GI50 (EKVX NSCLC): 2.46 µM
- TGI (EKVX NSCLC): 11.5 µM
- GI50 (U251 CNS): 3.26 µM
- TGI (U251 CNS): 20.4 µM
- GI50 (SF-539 CNS): 3.21 µM
- TGI (SF-539 CNS): 10.4 µM
- GI50 (A549 NSCLC): 7.08 µM
- TGI (A549 NSCLC): 27.3 µM
- GI50 (TK-10 renal): 4.97 µM
- TGI (TK-10 renal): 19 µM
- GI50 (OVCAR-3 ovarian): 3.21 µM
- TGI (OVCAR-3 ovarian): 11.7 µM
- GI50 (KM12 colon): 3.54 µM
- TGI (KM12 colon): 13.3 µM
- GI50 (OVCAR-4 ovarian): 6.63 µM
- TGI (OVCAR-4 ovarian): 40.1 µM
- GI50 (SNB-19 CNS): 3.35 µM
- TGI (SNB-19 CNS): 16.4 µM
- GI50 (SK-MEL-2 melanoma): 2.18 µM
- TGI (SK-MEL-2 melanoma): 5.03 µM
- GI50 (HCT-15 colon): 2.6 µM
- TGI (HCT-15 colon): 10.4 µM
- GI50 (OVCAR-5 ovarian): 13.6 µM
- TGI (OVCAR-5 ovarian): 27.2 µM
- GI50 (CCRF-CEM leukemia): 3.27 µM
- TGI (CCRF-CEM leukemia): > 100 µM
- GI50 (ACHN renal): 4.86 µM
- TGI (ACHN renal): 21.7 µM
- GI50 (HT29 colon): 3.29 µM
- TGI (HT29 colon): 13.5 µM
- GI50 (HOP-62 NSCLC): 3.82 µM
- TGI (HOP-62 NSCLC): 19.6 µM
- GI50 (COLO 205 colon): 3.09 µM
- TGI (COLO 205 colon): 14.7 µM
- GI50 (HL-60(TB) leukemia): 3.54 µM
- TGI (HL-60(TB) leukemia): 16.5 µM
- GI50 (BT-549 breast): 5.79 µM
- TGI (BT-549 breast): 19.8 µM
- GI50 (SR leukemia): 7.1 µM
- TGI (SR leukemia): > 100 µM
- GI50 (786-0 renal): 5.31 µM
- TGI (786-0 renal): 27.9 µM
- GI50 (HS 578T breast): 2.62 µM
- TGI (HS 578T breast): 16.6 µM
- GI50 (NCI/ADR-RES ovarian): 14.1 µM
- TGI (NCI/ADR-RES ovarian): 91.3 µM
- GI50 (RPMI-8226 leukemia): 2.79 µM
- TGI (RPMI-8226 leukemia): > 100 µM
- GI50 (SNB-75 CNS): 2.15 µM
- TGI (SNB-75 CNS): 19.3 µM
- GI50 (SW-620 colon): 2.57 µM
- TGI (SW-620 colon): 17 µM
- GI50 (SK-MEL-28 melanoma): 3.5 µM
- TGI (SK-MEL-28 melanoma): 13.1 µM
- GI50 (A498 renal): 5.08 µM
- TGI (A498 renal): 19.5 µM
- GI50 (UACC-62 melanoma): 2.33 µM
- TGI (UACC-62 melanoma): 6.97 µM
- GI50 (M14 melanoma): 4.49 µM
- TGI (M14 melanoma): 41.7 µM
- GI50 (SK-OV-3 ovarian): 5.28 µM
- TGI (SK-OV-3 ovarian): 20.6 µM
- GI50 (MDA-MB-231 breast): 4.29 µM
- TGI (MDA-MB-231 breast): 17.9 µM
- GI50 (UACC-257 melanoma): 5.44 µM
- TGI (UACC-257 melanoma): 23.1 µM
- GI50 (RXF 393 renal): 2.22 µM
- TGI (RXF 393 renal): 6.36 µM
- GI50 (DU-145 prostate): 11.2 µM
- TGI (DU-145 prostate): 36.5 µM
- GI50 (MOLT-4 leukemia): 3.45 µM
- TGI (MOLT-4 leukemia): > 100 µM
- GI50 (MDA-MB-468 breast): 2.33 µM
- TGI (MDA-MB-468 breast): 7.25 µM
- GI50 (NCI-H226 lung): 2.56 µM
- TGI (NCI-H226 lung): 12.8 µM
- GI50 (HOP-92 NSCLC): 2.65 µM
- TGI (HOP-92 NSCLC): 12.1 µM
- GI50 (SF-295 CNS): 2.11 µM
- TGI (SF-295 CNS): 7.21 µM
- GI50 (MDA-MB-435): 3.57 µM
- TGI (MDA-MB-435): 17.8 µM
- GI50 (MALME-3M melanoma): 3.24 µM
- TGI (MALME-3M melanoma): 13.6 µM
- GI50 (HCT-116 colon): 3.3 µM
- TGI (HCT-116 colon): 17.4 µM
- GI50 (LOX IMVI melanoma): 2.8 µM
- TGI (LOX IMVI melanoma): 10.8 µM
- GI50 (NCI-H460 lung): 3.19 µM
- TGI (NCI-H460 lung): 13.8 µM
- GI50 (K-562 leukemia): 3.69 µM
- TGI (K-562 leukemia): > 100 µM
- GI50 (NCI-H522 lung): 2.49 µM
- TGI (NCI-H522 lung): 8.88 µM
- GI50 (SF-268 CNS): 3.47 µM
- TGI (SF-268 CNS): 22.9 µM
